From publication PMC6707612, “Cyclic-di-GMP binds to histidine kinase RavS to control RavS-RavR phosphotransfer and regulates the bacterial lifestyle transition between virulence and swimming” (PLoS Pathogens, 2019)
“And” between values parts separate entries of the source, which are not always exact repeats. Equal entries are not always repeated.

Assays:
RavR^ΔEAL = target: T1, RavR^ΔEAL (Xanthomonas campestris pv. campestris, UniProt Q8P9A7); experiment: microscale thermophoresis (MST) binding; conditions: 20 nM fluorescein-labelled nucleotide, read-out: dissociation constant (Kd)
T1 sequence (Q8P9A7 with tags, fused parts or gaps): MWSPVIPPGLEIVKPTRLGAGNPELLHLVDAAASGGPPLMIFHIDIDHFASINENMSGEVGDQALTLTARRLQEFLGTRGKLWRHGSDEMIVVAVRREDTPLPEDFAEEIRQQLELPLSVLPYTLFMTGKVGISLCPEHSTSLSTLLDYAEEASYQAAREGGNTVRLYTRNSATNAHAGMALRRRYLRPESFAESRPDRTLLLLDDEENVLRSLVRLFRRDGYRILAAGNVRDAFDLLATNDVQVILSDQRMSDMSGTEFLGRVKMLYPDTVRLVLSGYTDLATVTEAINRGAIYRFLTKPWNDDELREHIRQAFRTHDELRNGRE

[1] = test system: DHpCA^D637A, DHp-CA^G639A, DHp-CA^D640A, DHp-CA^I653A, DHp-CA^E657A and DHp-CA^L666A; experiment: microscale thermophoresis (MST) binding, Ala-substituted DHp-CA proteins; design: species or system Xanthomonas campestris pv. campestris; conditions: compared with DHp-CA protein; fl-c-di-GMP used in the MST assay
Description: (§1) Fig 6 Arg^656 in the CA domain of RavS is a key residue for c-di-GMP binding. (a, b) c-di-GMP binds to the DHp-CA domain of RavS. PAS-A, PAS-B and DHp-CA in (a), and DHp and CA domains of RavS in (b), were purified and the interaction with c-di-GMP was measured by MST. Each assay was repeated three times. Standard deviations are shown. (c) Molecular docking model of the interaction between c-di-GMP and DHp-CA of RavS. c-di-GMP is shown as a ball-and-stick model and DHp-CA is shown in ribbon representation. (d) Schematic view of the predicted docking site between c-di-GMP and DHp-CA. Potential hydrogen bonds are indicated as blue dashed lines. Autodock software was used to predict the interaction. […] Ten recombinant proteins of the DHp-CA region, each containing a substitution of a putative essential residue involved in c-di-GMP binding, were used in the MST assay to quantify the Kd value of RavS–c-di-GMP binding. fl-c-di-GMP was used in the MST assay. […] The reactions were terminated with 5× SDS loading buffer and the products were separated by 12% SDS-PAGE, exposed to a phosphor screen and analysed by Typhoon FLA7000. […]
(§2) The interaction between c-di-GMP nucleotides and various proteins was measured by using MST with a fluorescein-labelled c-di-GMP (2′-Fluo-AHC-c-di-GMP, abbreviated as fl-c-di-GMP; 2′-Fluo-AHC-c-di-AMP, fl-c-di-AMP; 2′-Fluo-AHC-cGMP, fl-cGMP; Biolog, Germany). […]

[2] = test system: DHp-CA^S636A, DHp-CA^D638A and DHp-CA^L652A; experiment: as above; design: species or system Xanthomonas campestris pv. campestris; conditions: compared with positive control DHp-CA protein; fl-c-di-GMP used in the MST assay
Description: as §1, §2

PizD = target: PizD; design: method as in PMID 26055114; conditions: lower end of reported range; cited from earlier work
STING = target: STING; design: method as in PMID 26055114; conditions: upper end of reported range; cited from earlier work
RavS^ΔN(R656A) = experiment: in vitro phosphotransfer assay with Arg656-substituted RavS; assay type: biochemical, Xanthomonas campestris pv. campestris; conditions: 15 or 100 μM c-di-GMP
Description: as §1
An in vitro autophosphorylation assay was conducted as described in our previous study. […] After electrophoresis, gels were exposed to a phosphor screen (GE Healthcare) and the autoradiographic signals were detected by a Typhoon FLA7000 (GE Healthcare).

Row | SMILES | Kd (RavR^ΔEAL) | change in c-di-GMP binding affinity [1] | fold increases in Kd values [2] | Kd (PizD) [µM] | Kd (STING) [µM] | stimulation of phosphotransferase activity of RavS^ΔN(R656A)~P towards RavR^ΔEAL (RavS^ΔN(R656A))
1 | Nc1nc2c(ncn2[C@@H]2O[C@@H]3COP(=O)(O)O[C@H]4[C@@H](OC(=O)NCCCCCCNC(=O)c5ccc6c(c5)C(=O)OC65c6ccc(O)cc6Oc6cc(O)ccc65)[C@H](n5cnc6c(=O)[nH]c(N)nc65)O[C@@H]4COP(=O)(O)O[C@H]3[C@H]2O)c(=O)[nH]1 [fl-c-di-GMP, 2′-Fluo-AHC-c-di-GMP] | 111 µM and > 80 µM | – | – | – | – | –
2 | Nc1nc2c(ncn2[C@@H]2O[C@@H]3COP(=O)(O)O[C@H]4[C@@H](O)[C@H](n5cnc6c(=O)[nH]c(N)nc65)O[C@@H]4COP(=O)(O)O[C@H]3[C@H]2O)c(=O)[nH]1 [c-di-GMP, Cyclic di-GMP] | – | no significant change | 1–2 fold | 0.1 | 14.5 | failed to stimulate
